In one assay the target is T1, HDAC1 enzyme (Homo sapiens, UniProt Q13547).
T1 construct: prepared by transducing full length HDAC1 and HDAC6 genes into Sf-9 insect cells; GST; purchased SignalChem; host or cells: Sf-9 insect cells
Briefly: HDAC1 enzyme inhibitory assay (HDAC-Glo I/II Assay kit). The conditions noted are these: 1 μM test compound; for inhibition at 1 µM: read-out: HDAC1 inhibitory rate (%) (1 μM). The format is biochemical. In a few lines: (§1)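 Relative activity was calculated from luminescence, with wells lacking enzyme defined as 100% inhibition. The enzymes were full-length HDAC1 or HDAC6 from Sf-9 cells, preincubated with test compound for 60 min before a 20-min substrate-developer reaction at room temperature.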

The next assay has as its target T2, HDAC6 enzyme (Homo sapiens, UniProt Q9UBN7).
T2 construct: prepared by transducing full length HDAC1 and HDAC6 genes into Sf-9 insect cells; GST; purchased SignalChem; host or cells: Sf-9 insect cells
T2 sequence (Q9UBN7 1-1215): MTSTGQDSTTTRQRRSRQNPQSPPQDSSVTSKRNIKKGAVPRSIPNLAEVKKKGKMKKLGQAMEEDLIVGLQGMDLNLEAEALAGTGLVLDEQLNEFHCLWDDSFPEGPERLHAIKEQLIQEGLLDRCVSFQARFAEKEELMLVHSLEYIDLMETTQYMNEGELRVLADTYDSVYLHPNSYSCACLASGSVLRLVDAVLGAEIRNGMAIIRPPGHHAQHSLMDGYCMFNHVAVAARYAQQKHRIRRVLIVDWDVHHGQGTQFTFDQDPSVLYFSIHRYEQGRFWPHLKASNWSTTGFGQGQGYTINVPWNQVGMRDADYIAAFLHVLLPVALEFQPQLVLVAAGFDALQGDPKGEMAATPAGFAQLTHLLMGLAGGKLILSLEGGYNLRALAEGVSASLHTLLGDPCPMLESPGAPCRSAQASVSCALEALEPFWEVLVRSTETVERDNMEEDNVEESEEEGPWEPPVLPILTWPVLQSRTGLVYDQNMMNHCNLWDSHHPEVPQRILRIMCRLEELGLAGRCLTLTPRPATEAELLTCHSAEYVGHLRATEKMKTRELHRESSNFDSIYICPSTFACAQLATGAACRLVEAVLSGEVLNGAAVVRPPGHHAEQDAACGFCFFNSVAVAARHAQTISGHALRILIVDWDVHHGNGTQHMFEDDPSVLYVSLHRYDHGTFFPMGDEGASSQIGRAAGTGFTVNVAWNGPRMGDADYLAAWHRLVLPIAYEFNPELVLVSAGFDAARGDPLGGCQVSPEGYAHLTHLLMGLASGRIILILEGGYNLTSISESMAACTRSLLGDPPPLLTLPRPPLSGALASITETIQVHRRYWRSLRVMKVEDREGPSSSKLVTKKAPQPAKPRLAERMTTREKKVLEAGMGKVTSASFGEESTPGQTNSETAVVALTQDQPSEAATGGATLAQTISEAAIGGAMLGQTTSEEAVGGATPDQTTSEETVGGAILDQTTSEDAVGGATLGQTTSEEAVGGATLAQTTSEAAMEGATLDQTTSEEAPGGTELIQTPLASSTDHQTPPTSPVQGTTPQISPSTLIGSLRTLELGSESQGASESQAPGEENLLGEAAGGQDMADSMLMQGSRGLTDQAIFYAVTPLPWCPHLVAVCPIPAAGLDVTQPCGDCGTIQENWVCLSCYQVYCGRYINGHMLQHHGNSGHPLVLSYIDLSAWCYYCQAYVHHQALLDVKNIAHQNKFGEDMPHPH
Briefly: HDAC6 enzyme inhibitory assay (HDAC-Glo I/II Assay kit). It is filed as biochemical. Conditions: 1 μM test compound; for inhibition at 1 µM: read-out: HDAC6 inhibitory rate (%) (1 μM). In a few lines:
as §1

SMILES strings stand for the structures.

T1 sequence (Q13547 whole entry): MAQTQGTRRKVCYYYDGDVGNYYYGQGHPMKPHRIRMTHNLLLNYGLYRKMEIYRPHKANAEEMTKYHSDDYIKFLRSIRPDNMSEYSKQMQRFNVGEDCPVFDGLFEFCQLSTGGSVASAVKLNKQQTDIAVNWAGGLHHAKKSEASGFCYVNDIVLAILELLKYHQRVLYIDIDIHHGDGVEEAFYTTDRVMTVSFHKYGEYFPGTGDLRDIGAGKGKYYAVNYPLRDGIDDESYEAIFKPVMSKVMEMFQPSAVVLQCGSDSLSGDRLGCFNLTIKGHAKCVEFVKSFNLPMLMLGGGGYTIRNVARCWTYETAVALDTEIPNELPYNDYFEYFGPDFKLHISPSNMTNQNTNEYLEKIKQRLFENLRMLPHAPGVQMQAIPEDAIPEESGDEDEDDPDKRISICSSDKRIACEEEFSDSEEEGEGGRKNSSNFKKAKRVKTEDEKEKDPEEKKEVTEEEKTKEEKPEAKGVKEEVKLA

For `O=C(NCC1COCCN1C(=O)c1cccc(-c2ccccc2)c1)c1ccc(-c2noc(C(F)(F)F)n2)cc1` (stereo not shown) [Example 31, N-((4-(biphenyl-3-ylcarbonyl)morpholin-3-yl)methyl)-4-(5-(trifluoromethyl)-1,2,4-oxadiazol-3-yl)benzamide], the inhibition at 1 µM at HDAC1 enzyme stood at 28%; on HDAC6 enzyme it was 96%.
As for `O=C(NCC1COCCN1C(=O)c1ccccc1-c1ccccc1)c1ccc(-c2noc(C(F)(F)F)n2)cc1` (stereo not shown) [Example 32, N-((4-(biphenyl-2-ylcarbonyl)morpholin-3-yl)methyl)-4-(5-(trifluoromethyl)-1,2,4-oxadiazol-3-yl)benzamide], the values for the inhibition at 1 µM at HDAC1 enzyme and at HDAC6 enzyme were 23% and 96%, respectively.
Taken in the same sequence, the figures for `Cn1nc2ccccc2c1C(=O)N1CCOCC1CNC(=O)c1ccc(-c2noc(C(F)(F)F)n2)cc1` (stereo not shown) [Example 33, N-((4-((2-methyl-2H-indazol-3-yl)carbonyl)morpholin-3-yl)methyl)-4-(5-(trifluoromethyl)-1,2,4-oxadiazol-3-yl)benzamide] were 47% and 99%.
For `O=C(NCC1COCCN1C(=O)c1ccnc(C2CC2)c1)c1ccc(-c2noc(C(F)(F)F)n2)cc1` (stereo not shown) [Example 34, N-((4-(2-cyclopropylisonicotinoyl)morpholin-3-yl)methyl)-4-(5-(trifluoromethyl)-1,2,4-oxadiazol-3-yl)benzamide] the same measures were 18% and 98%.
Taken in the same sequence, the figures for `O=C(NCC1COCCN1C(=O)C1CCc2ccccc2O1)c1ccc(-c2noc(C(F)(F)F)n2)cc1` (stereo not shown) [Example 35, N-((4-(3,4-dihydro-2H-chromen-2-ylcarbonyl)morpholin-3-yl)methyl)-4-(5-(trifluoromethyl)-1,2,4-oxadiazol-3-yl)benzamide] were 30% and 92%.
For the compound `O=C(NC[C@H]1COCCN1C(=O)c1ccccc1)c1ccc(-c2noc(C(F)(F)F)n2)cc1` [Example 36, N-(((3S)-4-benzoylmorpholin-3-yl)methyl)-4-(5-(trifluoromethyl)-1,2,4-oxadiazol-3-yl)benzamide], the “HDAC1 inhibitory rate (%) (1 μM)” value on HDAC1 enzyme is 21%. The “HDAC6 inhibitory rate (%) (1 μM)” value at HDAC6 enzyme is 105%.
With `O=C(NC[C@H]1COCCN1C(=O)c1cc(Cl)cc(Cl)c1)c1ccc(-c2noc(C(F)(F)F)n2)cc1` [Example 37, N-(((3S)-4-(3,5-dichlorobenzoyl)morpholin-3-yl)methyl)-4-(5-(trifluoromethyl)-1,2,4-oxadiazol-3-yl)benzamide], the “HDAC1 inhibitory rate (%) (1 μM)” value at HDAC1 enzyme (1 µM) turned out to be 27%. Also, the “HDAC6 inhibitory rate (%) (1 μM)” value at HDAC6 enzyme was found to be 98%.
Regarding `Cn1nccc1C(=O)N1CCOC[C@@H]1CNC(=O)c1ccc(-c2noc(C(F)(F)F)n2)cc1` [Example 38, N-(((3S)-4-((1-methyl-1H-pyrazol-5-yl)carbonyl)morpholin-3-yl)methyl)-4-(5-(trifluoromethyl)-1,2,4-oxadiazol-3-yl)benzamide], the inhibition at 1 µM on HDAC1 enzyme came to 25%; on HDAC6 enzyme, 100%.
For `O=C(NC[C@H]1COCCN1C(=O)c1cc(F)cc(F)c1)c1ccc(-c2noc(C(F)(F)F)n2)cc1` [Example 39, N-(((3S)-4-(3,5-difluorobenzoyl)morpholin-3-yl)methyl)-4-(5-(trifluoromethyl)-1,2,4-oxadiazol-3-yl)benzamide] the same measures were 18% and 100%.
For `N#Cc1cc(F)cc(C(=O)N2CCOC[C@@H]2CNC(=O)c2ccc(-c3noc(C(F)(F)F)n3)cc2)c1` [Example 40, N-(((3S)-4-(3-cyano-5-fluorobenzoyl)morpholin-3-yl)methyl)-4-(5-(trifluoromethyl)-1,2,4-oxadiazol-3-yl)benzamide] the same measures were 17% and 99%.
For `O=C(NC[C@H]1COCCN1C(=O)c1cccc(F)c1)c1ccc(-c2noc(C(F)(F)F)n2)cc1` [Example 41, N-(((3S)-4-(3-fluorobenzoyl)morpholin-3-yl)methyl)-4-(5-(trifluoromethyl)-1,2,4-oxadiazol-3-yl)benzamide], the “HDAC1 inhibitory rate (%) (1 μM)” value on HDAC1 enzyme (1 µM) came to 65%. Besides, on HDAC6 enzyme, the “HDAC6 inhibitory rate (%) (1 μM)” value is 98%.
With `COc1cccc(C(=O)N2CCOC[C@@H]2CNC(=O)c2ccc(-c3noc(C(F)(F)F)n3)cc2)c1` [Example 42, N-(((3S)-4-(3-methoxybenzoyl)morpholin-3-yl)methyl)-4-(5-(trifluoromethyl)-1,2,4-oxadiazol-3-yl)benzamide], the inhibition at 1 µM on HDAC1 enzyme is 16%. Moreover, the “HDAC6 inhibitory rate (%) (1 μM)” value on HDAC6 enzyme stood at 101%.
For `N#Cc1ccccc1C(=O)N1CCOC[C@@H]1CNC(=O)c1ccc(-c2noc(C(F)(F)F)n2)cc1` [Example 43, N-(((3S)-4-(2-cyanobenzoyl)morpholin-3-yl)methyl)-4-(5-(trifluoromethyl)-1,2,4-oxadiazol-3-yl)benzamide] the same measures were 14% and 101%.
For `N#Cc1cccc(C(=O)N2CCOC[C@@H]2CNC(=O)c2ccc(-c3noc(C(F)(F)F)n3)cc2)c1` [Example 44, N-(((3S)-4-(3-cyanobenzoyl)morpholin-3-yl)methyl)-4-(5-(trifluoromethyl)-1,2,4-oxadiazol-3-yl)benzamide] the same measures were 16% and 99%.
Taken in the same sequence, the figures for `N#Cc1ccc(C(=O)N2CCOC[C@@H]2CNC(=O)c2ccc(-c3noc(C(F)(F)F)n3)cc2)cc1` [Example 45, N-(((3S)-4-(4-cyanobenzoyl)morpholin-3-yl)methyl)-4-(5-(trifluoromethyl)-1,2,4-oxadiazol-3-yl)benzamide] were 25% and 99%.
In the case of `O=C(NC[C@H]1COCCN1C(=O)c1ccccc1N1CCOCC1)c1ccc(-c2noc(C(F)(F)F)n2)cc1` [Example 46, N-(((3S)-4-(2-(morpholin-4-yl)benzoyl)morpholin-3-yl)methyl)-4-(5-(trifluoromethyl)-1,2,4-oxadiazol-3-yl)benzamide], the “HDAC1 inhibitory rate (%) (1 μM)” value on HDAC1 enzyme (1 µM) worked out at 12%. Moreover, the “HDAC6 inhibitory rate (%) (1 μM)” value at HDAC6 enzyme came out at 95%.
`O=C(NC[C@H]1COCCN1C(=O)c1cc(F)c(F)c(F)c1)c1ccc(-c2noc(C(F)(F)F)n2)cc1` [Example 47, N-(((3S)-4-(3,4,5-trifluorobenzoyl)morpholin-3-yl)methyl)-4-(5-(trifluoromethyl)-1,2,4-oxadiazol-3-yl)benzamide]: the “HDAC1 inhibitory rate (%) (1 μM)” value on HDAC1 enzyme amounted to 11%. The “HDAC6 inhibitory rate (%) (1 μM)” value at HDAC6 enzyme came to 102%.
Consider `O=C(NC[C@H]1COCCN1C(=O)c1ccncc1)c1ccc(-c2noc(C(F)(F)F)n2)cc1` [Example 48, N-(((3S)-4-isonicotinoylmorpholin-3-yl)methyl)-4-(5-(trifluoromethyl)-1,2,4-oxadiazol-3-yl)benzamide], for which the inhibition at 1 µM on HDAC1 enzyme was determined as 16%. For the same compound, the “HDAC6 inhibitory rate (%) (1 μM)” value at HDAC6 enzyme worked out at 98%.
Taken in the same sequence, the figures for `Cc1cc(C(=O)N2CCOC[C@@H]2CNC(=O)c2ccc(-c3noc(C(F)(F)F)n3)cc2)ccn1` [Example 49, N-(((3S)-4-(2-methylisonicotinoyl)morpholin-3-yl)methyl)-4-(5-(trifluoromethyl)-1,2,4-oxadiazol-3-yl)benzamide] were 13% and 98%.
For `O=C(NC[C@H]1COCCN1C(=O)c1ccc(OCC(F)(F)F)nc1)c1ccc(-c2noc(C(F)(F)F)n2)cc1` [Example 51, N-(((3S)-4-((6-(2,2,2-trifluoroethoxy)pyridin-3-yl)carbonyl)morpholin-3-yl)methyl)-4-(5-(trifluoromethyl)-1,2,4-oxadiazol-3-yl)benzamide], the values for the inhibition at 1 µM at HDAC1 enzyme and on HDAC6 enzyme were 15% and 99%, respectively.

Source of the values: patent US10081624B2, “Heterocyclic compound” (Takeda Pharmaceutical Company Limited, priority 2014, dated 2018).
